Laboratory results reported in ChEMBL document CHEMBL1201861, “Genomics of Drug Sensitity in Cancer screening data, Wellcome Trust Sanger Institute”.

Assays:
Assay in all cases: cells
KURAMOCHI = assay type: functional, cell-based, Homo sapiens; conditions: Homo sapiens, KURAMOCHI;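 note: growth inhibition of KURAMOCHI cells, read out with a cell viability assay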
Description: SANGER: Inhibition of human KURAMOCHI cell growth in a cell viability assay.

NCI-H1650 = assay type: functional, cell-based, Homo sapiens; conditions: Homo sapiens, NCI-H1650;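 note: growth inhibition of human NCI-H1650 cells measured by a cell viability assay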
Description: SANGER: Inhibition of human NCI-H1650 cell growth in a cell viability assay.

HCC2218 = assay type: functional, cell-based, Homo sapiens; conditions: Homo sapiens, HCC2218;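 note: cell viability assay read-out, with IC50 given as the concentration that inhibits growth of the cell line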
Description: SANGER: Inhibition of human HCC2218 cell growth in a cell viability assay.

IST-MEL1 = assay type: functional, cell-based, Homo sapiens; conditions: Homo sapiens, IST-MEL1;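 note: growth inhibition of the cell line, read out with a cell viability assay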
SH-4 = assay type: functional, cell-based; conditions: Homo sapiens;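 note: growth inhibition of SH-4 cells, read out with a cell viability assay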
Description: SANGER: Inhibition of human SH-4 cell growth in a cell viability assay.

697 = assay type: functional, cell-based, Homo sapiens; conditions: Homo sapiens
NOS-1 = assay type: functional, cell-based, Homo sapiens; conditions: Homo sapiens, NOS-1;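 note: growth inhibition of the human NOS-1 cell line, read out with a cell viability assay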
Description: SANGER: Inhibition of human NOS-1 cell growth in a cell viability assay.

no-10 = assay type: functional, cell-based, Homo sapiens; conditions: Homo sapiens;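 note: growth inhibition of no-10 cells, read out with a cell viability assay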
Description: SANGER: Inhibition of human no-10 cell growth in a cell viability assay.

EW-3 = assay type: functional, cell-based, Homo sapiens; conditions: Homo sapiens, EW-3;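 note: cell viability assay read-out, IC50 reflects inhibition of growth of the EW-3 cells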
Description: SANGER: Inhibition of human EW-3 cell growth in a cell viability assay.

TGW = assay type: functional, cell-based, Homo sapiens; conditions: Homo sapiens, TGW;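 note: growth inhibition of human TGW cells, read out with a cell viability assay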
Description: SANGER: Inhibition of human TGW cell growth in a cell viability assay.

ETK-1 = assay type: functional, cell-based, Homo sapiens; conditions: Homo sapiens, ETK-1;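 note: growth inhibition of human ETK-1 cells, read out with a cell viability assay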
Description: SANGER: Inhibition of human ETK-1 cell growth in a cell viability assay.

KALS-1 = assay type: functional, cell-based, Homo sapiens; conditions: Homo sapiens, KALS-1; read-out: IC50;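 note: growth inhibition of KALS-1 cells, determined with a cell viability assay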
Description: SANGER: Inhibition of human KALS-1 cell growth in a cell viability assay.

TE-11 = assay type: functional, cell-based; conditions: Homo sapiens;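 note: growth inhibition of human TE-11 cells, read out by a cell viability assay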
Description: SANGER: Inhibition of human TE-11 cell growth in a cell viability assay.

RPMI-8866 = assay type: functional, cell-based, Homo sapiens; conditions: Homo sapiens, RPMI-8866
KU812 cell line = assay type: functional, cell-based, Homo sapiens; conditions: Homo sapiens, KU812;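 note: growth inhibition of KU812 cells, read out with a cell viability assay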
Description: SANGER: Inhibition of human KU812 cell growth in a cell viability assay.

SW982 = assay type: functional, cell-based; conditions: Homo sapiens;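 note: growth inhibition of SW982 cells, read out with a cell viability assay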
Description: SANGER: Inhibition of human SW982 cell growth in a cell viability assay.

RCC10RGB = assay type: functional, cell-based, Homo sapiens; conditions: Homo sapiens, RCC10RGB;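 note: growth inhibition of human RCC10RGB cells, read out by a cell viability assay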
Description: SANGER: Inhibition of human RCC10RGB cell growth in a cell viability assay.

GOTO = assay type: functional, cell-based, Homo sapiens; conditions: Homo sapiens, GOTO;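 note: growth inhibition of GOTO cells, read out by a cell viability assay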
Description: SANGER: Inhibition of human GOTO cell growth in a cell viability assay.

MC116 = assay type: functional, cell-based, Homo sapiens; conditions: Homo sapiens, MC116;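 note: growth inhibition of MC116 cells, read out with a cell viability assay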
Description: SANGER: Inhibition of human MC116 cell growth in a cell viability assay.

SK-MEL-1 = assay type: functional, cell-based, Homo sapiens; conditions: Homo sapiens, SK-MEL-1;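 note: growth inhibition of human SK-MEL-1 cells, read out by a cell viability assay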
Description: SANGER: Inhibition of human SK-MEL-1 cell growth in a cell viability assay.

MZ1-PC = assay type: functional, cell-based, Homo sapiens; conditions: Homo sapiens, MZ1-PC;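 note: cell viability assay measuring growth inhibition of human MZ1-PC cells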
RXF 393 = assay type: functional, cell-based, Homo sapiens; conditions: Homo sapiens, RXF 393;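 note: growth inhibition of human RXF 393 cells, read out with a cell viability assay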
Description: SANGER: Inhibition of human RXF393 cell growth in a cell viability assay.

NCI-H446 = assay type: functional, cell-based, Homo sapiens; conditions: Homo sapiens, NCI-H446;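 note: growth inhibition of NCI-H446 cells determined by a cell viability assay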
Description: SANGER: Inhibition of human NCI-H446 cell growth in a cell viability assay.

KP-N-YS = assay type: functional, cell-based, Homo sapiens; conditions: Homo sapiens, KP-N-YS;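 note: cell viability assay measuring inhibition of cell line growth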
Description: SANGER: Inhibition of human KP-N-YS cell growth in a cell viability assay.

TGBC1TKB = assay type: functional, cell-based, Homo sapiens; conditions: Homo sapiens, TGBC1TKB;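 note: growth inhibition of TGBC1TKB cells, read out by a cell viability assay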
Description: SANGER: Inhibition of human TGBC1TKB cell growth in a cell viability assay.

SF-539 = assay type: functional, cell-based, Homo sapiens; conditions: Homo sapiens, SF-539;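 note: Read-out is a cell viability assay, with IC50 reflecting inhibition of cell growth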
Description: SANGER: Inhibition of human SF539 cell growth in a cell viability assay.

HL-60 = assay type: functional, cell-based, Homo sapiens; conditions: Homo sapiens, HL-60;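 note: growth inhibition of human HL-60 cells, read out with a cell viability assay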
Description: SANGER: Inhibition of human HL-60 cell growth in a cell viability assay.

JVM-2 = assay type: functional, cell-based, Homo sapiens; conditions: Homo sapiens, JVM-2;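 note: growth inhibition of JVM-2 cells determined by a cell viability assay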
Description: SANGER: Inhibition of human JVM-2 cell growth in a cell viability assay.

KGN = assay type: functional, cell-based, Homo sapiens; conditions: Homo sapiens, KGN;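 note: growth inhibition of KGN cells, read out with a cell viability assay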
Description: SANGER: Inhibition of human KGN cell growth in a cell viability assay.

NCI-H2126 = assay type: functional, cell-based, Homo sapiens; conditions: Homo sapiens, NCI-H2126;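 note: growth inhibition of the cancer cell line, determined with a cell viability readout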
Description: SANGER: Inhibition of human NCI-H2126 cell growth in a cell viability assay.

KS-1 = assay type: functional, cell-based; conditions: Homo sapiens;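 note: growth inhibition of KS-1 cells, read out with a cell viability assay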
Description: SANGER: Inhibition of human KS-1 cell growth in a cell viability assay.

KNS-42 = assay type: functional, cell-based; conditions: Homo sapiens;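 note: growth inhibition of KNS-42 cells, read out with a cell viability assay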
Description: SANGER: Inhibition of human KNS-42 cell growth in a cell viability assay.

K562 = assay type: functional, cell-based, Homo sapiens; conditions: Homo sapiens, K562
TGBC24TKB = assay type: functional, cell-based; conditions: Homo sapiens;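 note: growth inhibition of human TGBC24TKB cells, read out with a cell viability assay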
Description: SANGER: Inhibition of human TGBC24TKB cell growth in a cell viability assay.

SCC-15 = assay type: functional, cell-based, Homo sapiens; conditions: Homo sapiens, SCC-15;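 note: growth inhibition of SCC-15 cells, read out with a cell viability assay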
HT-144 = assay type: functional, cell-based, Homo sapiens; conditions: Homo sapiens, HT-144
DB = assay type: functional, cell-based, Homo sapiens; conditions: Homo sapiens, DB
Description: SANGER: Inhibition of human DB cell growth in a cell viability assay.

GI-ME-N = assay type: functional, cell-based, Homo sapiens; conditions: Homo sapiens, GI-ME-N;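 note: growth inhibition of human GI-ME-N cells, read out with a cell viability assay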
Description: SANGER: Inhibition of human GI-ME-N cell growth in a cell viability assay.

VA-ES-BJ = assay type: functional, cell-based, Homo sapiens; conditions: Homo sapiens, VA-ES-BJ;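 note: growth inhibition of the VA-ES-BJ cell line, read out by a cell viability assay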
Description: SANGER: Inhibition of human VA-ES-BJ cell growth in a cell viability assay.

MN-60 = assay type: functional, cell-based, Homo sapiens; conditions: Homo sapiens, MN-60;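 note: growth inhibition of the MN-60 cell line, determined with a cell viability assay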
Description: SANGER: Inhibition of human MN-60 cell growth in a cell viability assay.

MSTO-211H = assay type: functional, cell-based, Homo sapiens; conditions: Homo sapiens, MSTO-211H
Description: SANGER: Inhibition of human MSTO-211H cell growth in a cell viability assay.

ES4 = assay type: functional, cell-based, Homo sapiens; conditions: Homo sapiens, ES4;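 note: growth inhibition of human ES4 cells, read out by a cell viability assay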
CTB-1 = assay type: functional, cell-based, Homo sapiens; conditions: Homo sapiens, CTB-1
Description: SANGER: Inhibition of human CTB-1 cell growth in a cell viability assay.

EM-2 = assay type: functional, cell-based, Homo sapiens; conditions: Homo sapiens, EM-2;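 note: growth inhibition of EM-2 cells, read out with a cell viability assay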
Description: SANGER: Inhibition of human EM-2 cell growth in a cell viability assay.

EKVX = assay type: functional, cell-based, Homo sapiens; conditions: Homo sapiens, EKVX;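 note: growth inhibition of human EKVX cells, read out with a cell viability assay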
Description: SANGER: Inhibition of human EKVX cell growth in a cell viability assay.

LB831-BLC = assay type: functional, cell-based, Homo sapiens; conditions: Homo sapiens, LB831-BLC;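 note: growth inhibition of LB831-BLC cells, read out with a cell viability assay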
Description: SANGER: Inhibition of human LB831-BLC cell growth in a cell viability assay.

ONS-76 = assay type: functional, cell-based, Homo sapiens; conditions: Homo sapiens, ONS-76;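 note: growth inhibition of human ONS-76 cells, read out with a cell viability assay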
Description: SANGER: Inhibition of human ONS-76 cell growth in a cell viability assay.

Mo = assay type: functional, cell-based, Homo sapiens; conditions: Homo sapiens, Mo
Description: SANGER: Inhibition of human Mo-T cell growth in a cell viability assay.

LU-139 = assay type: functional, cell-based, Homo sapiens; conditions: Homo sapiens, LU-139
Description: SANGER: Inhibition of human LU-139 cell growth in a cell viability assay.

BB49-HNC = assay type: functional, cell-based, Homo sapiens; conditions: Homo sapiens, BB49-HNC;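 note: cell viability assay read-out, reported as inhibition of BB49-HNC cell growth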
Description: SANGER: Inhibition of human BB49-HNC cell growth in a cell viability assay.

ES5 = assay type: functional, cell-based, Homo sapiens; conditions: Homo sapiens, ES5;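 note: growth inhibition of human ES5 cells, read out by a cell viability assay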
Description: SANGER: Inhibition of human ES5 cell growth in a cell viability assay.

Q: How did the IC50 (KURAMOCHI) turn out when `Cc1cc(N2CCOCC2)cc2[nH]c(-c3c(NC[C@@H](O)c4cccc(Cl)c4)cc[nH]c3=O)nc12` was run?
A: 4000 nM

Q: And the IC50 (NCI-H1650)?
A: > 5120 nM

Q: What about the IC50 (HCC2218) of the same compound?
A: > 5120 nM

Q: And the IC50 (IST-MEL1)?
A: 4600 nM

Q: What about the IC50 (SH-4) of the same compound?
A: 882 nM

Q: And the IC50 697?
A: 1120 nM

Q: What about the IC50 (NOS-1) of the same compound?
A: 74.4 nM

Q: What about the IC50 (no-10) of the same compound?
A: > 5120 nM

Q: And the IC50 (EW-3)?
A: 4760 nM

Q: And the IC50 (TGW)?
A: 683 nM

Q: And the IC50 (ETK-1)?
A: 96.1 nM

Q: What about the IC50 (KALS-1) of the same compound?
A: > 5120 nM

Q: What about the IC50 (TE-11) of the same compound?
A: 152 nM

Q: What about the IC50 (RPMI-8866) of the same compound?
A: > 5120 nM

Q: And the IC50 (KU812 cell line)?
A: > 5120 nM

Q: And the IC50 (SW982)?
A: 718 nM

Q: And the IC50 (RCC10RGB)?
A: 3570 nM

Q: And the IC50 (GOTO)?
A: > 5120 nM

Q: And the IC50 (MC116)?
A: > 5120 nM

Q: What about the IC50 (SK-MEL-1) of the same compound?
A: > 5120 nM

Q: What about the IC50 (MZ1-PC) of the same compound?
A: 764 nM

Q: What about the IC50 (RXF 393) of the same compound?
A: 1300 nM

Q: What about the IC50 (NCI-H446) of the same compound?
A: > 5120 nM

Q: What about the IC50 (KP-N-YS) of the same compound?
A: > 5120 nM

Q: What about the IC50 (TGBC1TKB) of the same compound?
A: 2310 nM

Q: What about the IC50 (SF-539) of the same compound?
A: > 5120 nM

Q: And the IC50 (HL-60)?
A: 286 nM

Q: What about the IC50 (JVM-2) of the same compound?
A: > 5120 nM

Q: And the IC50 (KGN)?
A: 1090 nM

Q: And the IC50 (NCI-H2126)?
A: 3980 nM

Q: And the IC50 (KS-1)?
A: 102 nM

Q: And the IC50 (KNS-42)?
A: > 5120 nM

Q: And the IC50 (K562)?
A: > 5120 nM

Q: And the IC50 (TGBC24TKB)?
A: 275 nM

Q: What about the IC50 (SCC-15) of the same compound?
A: > 5120 nM

Q: What about the IC50 (HT-144) of the same compound?
A: 1820 nM

Q: What about the IC50 (DB) of the same compound?
A: > 5120 nM

Q: What about the IC50 (GI-ME-N) of the same compound?
A: 2060 nM

Q: What about the IC50 (VA-ES-BJ) of the same compound?
A: > 5120 nM

Q: And the IC50 (MN-60)?
A: > 5120 nM

Q: And the IC50 (MSTO-211H)?
A: > 5120 nM

Q: And the IC50 (ES4)?
A: 622 nM

Q: What about the IC50 (CTB-1) of the same compound?
A: > 5120 nM

Q: And the IC50 (EM-2)?
A: > 5120 nM

Q: And the IC50 (EKVX)?
A: 2510 nM

Q: What about the IC50 (LB831-BLC) of the same compound?
A: 1500 nM

Q: What about the IC50 (ONS-76) of the same compound?
A: > 5120 nM

Q: And the IC50 (Mo)?
A: > 5120 nM

Q: What about the IC50 (LU-139) of the same compound?
A: > 5120 nM

Q: And the IC50 (BB49-HNC)?
A: > 5120 nM

Q: What about the IC50 (ES5) of the same compound?
A: > 5120 nM

Q: How did the IC50 (KURAMOCHI) turn out when `C[C@@H](Oc1cc(-c2cnn(C3CCNCC3)c2)cnc1N)c1c(Cl)ccc(F)c1Cl` [CRIZOTINIB] was run?
A: > 2000 nM

Q: And the IC50 (NCI-H1650)?
A: > 2000 nM

Q: And the IC50 (HCC2218)?
A: > 2000 nM

Q: What about the IC50 (IST-MEL1) of the same compound?
A: > 2000 nM

Q: And the IC50 (SH-4)?
A: > 2000 nM

Q: What about the IC50 697 of the same compound?
A: > 2000 nM

Q: And the IC50 (NOS-1)?
A: > 2000 nM

Q: What about the IC50 (no-10) of the same compound?
A: > 2000 nM

Q: And the IC50 (EW-3)?
A: > 2000 nM

Q: And the IC50 (TGW)?
A: > 2000 nM

Q: And the IC50 (ETK-1)?
A: > 2000 nM

Q: And the IC50 (KALS-1)?
A: > 2000 nM

Q: What about the IC50 (TE-11) of the same compound?
A: > 2000 nM

Q: What about the IC50 (RPMI-8866) of the same compound?
A: > 2000 nM

Q: And the IC50 (KU812 cell line)?
A: > 2000 nM

Q: What about the IC50 (SW982) of the same compound?
A: > 2000 nM

Q: And the IC50 (RCC10RGB)?
A: > 2000 nM

Q: And the IC50 (GOTO)?
A: > 2000 nM

Q: And the IC50 (MC116)?
A: > 2000 nM

Q: And the IC50 (SK-MEL-1)?
A: > 2000 nM

Q: What about the IC50 (MZ1-PC) of the same compound?
A: > 2000 nM

Q: What about the IC50 (RXF 393) of the same compound?
A: > 2000 nM

Q: What about the IC50 (NCI-H446) of the same compound?
A: > 2000 nM

Q: And the IC50 (KP-N-YS)?
A: > 2000 nM

Q: And the IC50 (TGBC1TKB)?
A: > 2000 nM

Q: What about the IC50 (SF-539) of the same compound?
A: 204 nM

Q: What about the IC50 (HL-60) of the same compound?
A: > 2000 nM

Q: What about the IC50 (JVM-2) of the same compound?
A: > 2000 nM

Q: What about the IC50 (KGN) of the same compound?
A: > 2000 nM

Q: And the IC50 (NCI-H2126)?
A: > 2000 nM

Q: What about the IC50 (KS-1) of the same compound?
A: > 2000 nM

Q: What about the IC50 (KNS-42) of the same compound?
A: > 2000 nM

Q: And the IC50 (K562)?
A: 1720 nM

Q: What about the IC50 (TGBC24TKB) of the same compound?
A: > 2000 nM

Q: What about the IC50 (SCC-15) of the same compound?
A: > 2000 nM

Q: What about the IC50 (HT-144) of the same compound?
A: > 2000 nM

Q: And the IC50 (DB)?
A: > 2000 nM

Q: And the IC50 (GI-ME-N)?
A: > 2000 nM

Q: And the IC50 (VA-ES-BJ)?
A: > 2000 nM

Q: What about the IC50 (MN-60) of the same compound?
A: > 2000 nM

Q: What about the IC50 (MSTO-211H) of the same compound?
A: > 2000 nM

Q: And the IC50 (ES4)?
A: > 2000 nM

Q: What about the IC50 (CTB-1) of the same compound?
A: > 2000 nM

Q: What about the IC50 (EM-2) of the same compound?
A: 601 nM

Q: What about the IC50 (EKVX) of the same compound?
A: > 2000 nM

Q: And the IC50 (LB831-BLC)?
A: > 2000 nM

Q: What about the IC50 (ONS-76) of the same compound?
A: > 2000 nM

Q: What about the IC50 (Mo) of the same compound?
A: > 2000 nM

Q: What about the IC50 (LU-139) of the same compound?
A: > 2000 nM

Q: What about the IC50 (BB49-HNC) of the same compound?
A: > 2000 nM

Q: What about the IC50 (ES5) of the same compound?
A: > 2000 nM
